The subject of this test is T. vivax (STIB719). The test can be described thus: Cattle efficacy for compound 2, intravenous infusion (Clinvet), T. vivax. Format: in vivo, Trypanosoma vivax. As to conditions: Friesian-Holstein cattle infected with T. vivax; n = 4; at 100 days. The procedure: Unfortunately, an injection site tolerability issue arose during the pharmacokinetic study in cattle that was not evident in rats. […] To circumvent these issues, compound 2 was assessed in an in vivo proof of concept efficacy study in Friesian-Holstein cattle using an IV infusion regimen. The study was conducted in four animals infected with T. congolense (KONT2/133) and four animals infected with T. vivax (STIB719). Three additional animals infected with each strain formed the vehicle control groups and were dosed IV once daily with saline. Pharmacokinetic modeling was used to define a dosing regimen that mimics the blood concentration–time profile that delivered cure in mice (10 mg/kg SC once daily for 2 days, with a Ctrough of >20 ng/mL (>38 nM)). A continuous infusion over 36 h and two loading doses 24 h apart were required. […]
Response to treatment was determined by monitoring parasitaemia twice a week until day 21. […]
In each of the cattle efficacy studies (3.3, 3.4 and 3.5), efficacy was assessed primarily on absence of recrudescence of parasitaemia for 100 days after treatment administration together with improvements in Packed Cell Volume, body weight and clinical signs of infected compared with uninfected animals. […]

With `CC(C)CS(=O)(=O)N[C@H]1CC[C@H](Nc2nc(N)c(C(=O)c3c(F)cc(CN(C)C)cc3F)s2)CC1` [Compound 2, N-(trans)-[4-[[4-Amino-5-[4-(dimethylaminomethyl)-2,6-difluoro-benzoyl]thiazol-2-yl]amino]cyclohexyl]-2-methyl-propane-1-sulfonamide], the “Efficacy in cattle, IV bolus and infusion” value was “cured”.

The record behind these values is PMC9014415, “Repositioning of a Diaminothiazole Series Confirmed to Target the Cyclin-Dependent Kinase CRK12 for Use in the Treatment of African Animal Trypanosomiasis” (Journal of Medicinal Chemistry, 2022).
